Measurements from patent publication US8372391B2, “Biofungicidal composition for controlling phytopathogenic fungi” (priority 2009, dated 2013).

Test system: Serratia plymuthica CCGG2742
Experiment: Susceptibility of Serratia plymuthica CCGG2742 to various antibiotics
Format: cell-based
Design: key: sensibility (S); resistance (R)

Row | Molecule | Susceptibility of Serratia plymuthica CCGG2742 to antibiotic (antibiotic 30 μg) | other results
1 | NCC[C@H](O)C(=O)N[C@@H]1C[C@H](N)[C@@H](O[C@H]2O[C@H](CN)[C@@H](O)[C@H](O)[C@H]2O)[C@H](O)[C@H]1O[C@H]1O[C@H](CO)[C@@H](O)[C@H](N)[C@H]1O [Amikacine] | S | 
2 | CC1(C)S[C@@H]2[C@H](NC(=O)[C@H](N)c3ccc(O)cc3)C(=O)N2[C@H]1C(=O)O [Amoxicillin] |  | Susceptibility of Serratia plymuthica CCGG2742 to antibiotic (antibiotic 25 μg): R
3 | CC1(C)S[C@@H]2[C@H](NC(=O)[C@H](N)c3ccccc3)C(=O)N2[C@H]1C(=O)O [Ampicillin] |  | Susceptibility of Serratia plymuthica CCGG2742 to antibiotic (antibiotic 10 μg): R
4 | C[C@H]1[C@H](NC(=O)/C(=N\OC(C)(C)C(=O)O)c2csc(N)n2)C(=O)N1S(=O)(=O)O [Aztreonam] | S | 
5 | CC1(C)S[C@@H]2[C@H](NC(=O)C(C(=O)O)c3ccccc3)C(=O)N2[C@H]1C(=O)O (some centres unmarked) [Carbenicillin] |  | Susceptibility of Serratia plymuthica CCGG2742 to antibiotic (antibiotic 100 μg): S
6 | CC1=C(C(=O)O)N2C(=O)[C@@H](NC(=O)[C@H](N)c3ccc(O)cc3)[C@H]2SC1 [Cefadroxil] | R | 
7 | CC(=O)OCC1=C(C(=O)O)N2C(=O)[C@@H](NC(=O)Cc3cccs3)[C@H]2SC1 [Cefalotin] | R | 
8 | Cc1nnc(SCC2=C(C(=O)O)N3C(=O)[C@@H](NC(=O)Cn4cnnn4)[C@H]3SC2)s1 [Cefazolin] | R | 
9 | CCN1CCN(C(=O)N[C@@H](C(=O)N[C@@H]2C(=O)N3C(C(=O)O)=C(CSc4nnnn4C)CS[C@H]23)c2ccc(O)cc2)C(=O)C1=O [Cefoperazone] |  | Susceptibility of Serratia plymuthica CCGG2742 to antibiotic (antibiotic 75 μg): S
10 | CO/N=C(\C(=O)N[C@@H]1C(=O)N2C(C(=O)O)=C(COC(C)=O)CS[C@H]12)c1csc(N)n1 [Cefotaxime] | S | 
11 | CC(C)(O/N=C(\C(=O)N[C@@H]1C(=O)N2C(C(=O)[O-])=C(C[n+]3ccccc3)CS[C@H]12)c1csc(N)n1)C(=O)O [Ceftazidime] | S | 
12 | CO/N=C(\C(=O)N[C@@H]1C(=O)N2C(C(=O)O)=C(CSc3nc(=O)c(=O)[nH]n3C)CS[C@H]12)c1csc(N)n1 [Ceftriaxone] | S | 
13 | CO/N=C(\C(=O)N[C@@H]1C(=O)N2C(C(=O)O)=C(COC(N)=O)CS[C@H]12)c1ccco1 [Cefuroxime] | R | 
14 | O=C(N[C@H](CO)[C@H](O)c1ccc([N+](=O)[O-])cc1)C(Cl)Cl [Chloramphenicol] | S | 
15 | CCC[C@@H]1C[C@@H](C(=O)N[C@@H]([C@H]2O[C@H](SC)[C@H](O)[C@@H](O)[C@H]2O)[C@H](C)Cl)N(C)C1 [Clindamycin] |  | Susceptibility of Serratia plymuthica CCGG2742 to antibiotic (antibiotic 2 μg): R
16 | CC[C@H]1OC(=O)[C@H](C)[C@@H](O[C@H]2C[C@@](C)(OC)[C@@H](O)[C@H](C)O2)[C@H](C)[C@@H](O[C@@H]2O[C@H](C)C[C@H](N(C)C)[C@H]2O)[C@](C)(O)C[C@@H](C)C(=O)[C@H](C)[C@@H](O)[C@]1(C)O [Erythromycin] |  | Susceptibility of Serratia plymuthica CCGG2742 to antibiotic (antibiotic 15 μg): R
17 | O=C1CN(/N=C/c2ccc([N+](=O)[O-])o2)C(=O)N1 [Nitrofurantoin] |  | Susceptibility of Serratia plymuthica CCGG2742 to antibiotic (antibiotic 300 μg): R
18 | CO[C@@H]1[C@@H](OC(N)=O)[C@@H](O)[C@H](Oc2ccc3c(O)c(NC(=O)c4ccc(O)c(CC=C(C)C)c4)c(=O)oc3c2C)OC1(C)C [Novobiocin] |  | Susceptibility of Serratia plymuthica CCGG2742 to antibiotic (antibiotic 5 μg): R
19 | Cc1onc(-c2ccccc2)c1C(=O)N[C@@H]1C(=O)N2[C@@H]1SC(C)(C)[C@@H]2C(=O)O [Oxacillin] |  | Susceptibility of Serratia plymuthica CCGG2742 to antibiotic (antibiotic 1 μg): R
20 | CN(C)[C@@H]1C(O)=C(C(N)=O)C(=O)[C@@]2(O)C(O)=C3C(=O)c4c(O)cccc4[C@@](C)(O)[C@H]3C[C@@H]12 [Tetracycline] | R | 
21 | CN[C@H](CC(C)C)C(=O)N[C@H]1C(=O)N[C@@H](CC(N)=O)C(=O)N[C@H]2C(=O)N[C@H]3C(=O)N[C@H](C(=O)N[C@H](C(=O)O)c4cc(O)cc(O)c4-c4cc3ccc4O)[C@H](O)c3ccc(c(Cl)c3)Oc3cc2cc(c3O[C@@H]2O[C@H](CO)[C@@H](O)[C@H](O)[C@H]2O[C@H]2C[C@](C)(N)[C@H](O)[C@H](C)O2)Oc2ccc(cc2Cl)[C@H]1O [Vancomycin] | R | 
22 | Gentamicin |  | Susceptibility of Serratia plymuthica CCGG2742 to antibiotic (antibiotic 10 μg): S
23 | Penicillin |  | Susceptibility of Serratia plymuthica CCGG2742 to antibiotic (antibiotic 10 U): R
